Data published in PubChem BioAssay (NCI).
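A five-concentration, 48-hour dose response in 96-well plates underlies each endpoint, interpolated linearly between surrounding concentrations. TGI: total growth inhibition.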

Assays:
Test in all cases: NCI tumour cell line growth inhibition, 48 h
A549 NSCLC = system: A549 NSCLC
EKVX NSCLC = system: EKVX NSCLC
SK-MEL-5 melanoma = system: SK-MEL-5 melanoma
OVCAR-5 ovarian = system: OVCAR-5 ovarian
HCC-2998 colon = system: HCC-2998 colon
COLO 205 colon = system: COLO 205 colon
SNB-75 CNS = system: SNB-75 CNS
SK-MEL-2 melanoma = system: SK-MEL-2 melanoma
HOP-62 NSCLC = system: HOP-62 NSCLC
NCI/ADR-RES ovarian = system: NCI/ADR-RES ovarian
OVCAR-4 ovarian = system: OVCAR-4 ovarian
MCF7 breast = system: MCF7 breast
UACC-62 melanoma = system: UACC-62 melanoma
A498 renal = system: A498 renal
OVCAR-3 ovarian = system: OVCAR-3 ovarian
HCT-15 colon = system: HCT-15 colon
HCT-116 colon = system: HCT-116 colon
UACC-257 melanoma = system: UACC-257 melanoma
NCI-H460 lung = system: NCI-H460 lung
RXF 393 renal = system: RXF 393 renal
SNB-78 CNS = system: SNB-78 CNS
NCI-H522 lung = system: NCI-H522 lung
KM12 colon = system: KM12 colon
SK-MEL-28 melanoma = system: SK-MEL-28 melanoma
SN12K1 renal = system: SN12K1 renal
MALME-3M melanoma = system: MALME-3M melanoma
SF-295 CNS = system: SF-295 CNS
UO-31 renal = system: UO-31 renal
SNB-19 CNS = system: SNB-19 CNS
M19-MEL melanoma = system: M19-MEL melanoma
SF-268 CNS = system: SF-268 CNS
SF-539 CNS = system: SF-539 CNS
U251 CNS = system: U251 CNS
NCI-H226 lung = system: NCI-H226 lung
NCI-H23 lung = system: NCI-H23 lung
DMS 273 small cell lung = system: DMS 273 small cell lung
SN12C renal = system: SN12C renal
HOP-18 NSCLC = system: HOP-18 NSCLC
HT29 colon = system: HT29 colon
K-562 leukemia = system: K-562 leukemia
MOLT-4 leukemia = system: MOLT-4 leukemia
XF 498 CNS = system: XF 498 CNS
SW-620 colon = system: SW-620 colon
LOX IMVI melanoma = system: LOX IMVI melanoma
CCRF-CEM leukemia = system: CCRF-CEM leukemia
RPMI-8226 leukemia = system: RPMI-8226 leukemia
IGROV1 ovarian = system: IGROV1 ovarian
SK-OV-3 ovarian = system: SK-OV-3 ovarian
P388/ADR leukemia = system: P388/ADR leukemia
KM20L2 colon = system: KM20L2 colon
HL-60(TB) leukemia = system: HL-60(TB) leukemia
DLD-1 colon = system: DLD-1 colon
P388 leukemia = system: P388 leukemia
OVCAR-8 ovarian = system: OVCAR-8 ovarian
DMS 114 small cell lung = system: DMS 114 small cell lung
HOP-92 NSCLC = system: HOP-92 NSCLC
RXF-631 renal = system: RXF-631 renal
LXFL 529 NSCLC = system: LXFL 529 NSCLC
M14 melanoma = system: M14 melanoma
TK-10 renal = system: TK-10 renal
CAKI-1 renal = system: CAKI-1 renal
ACHN renal = system: ACHN renal
786-0 renal = system: 786-0 renal
SR leukemia = system: SR leukemia

CSCC[C@@H](NC(=O)[C@H](CC(C)C)NC(=O)C(Cc1cnc[nH]1)NC(=O)CNC(=O)[C@@H](NC(=O)[C@H](C)NC(=O)[C@H](Cc1cn(C=O)c2ccccc12)NC(=O)[C@H](CCC(N)=O)NC(=O)[C@@H](N)CC(N)=O)C(C)C)C(N)=O (some centres not stated)
TGI (A549 NSCLC): > 100 µM
TGI (EKVX NSCLC): > 100 µM
TGI (SK-MEL-5 melanoma): > 100 µM
TGI (OVCAR-5 ovarian): > 100 µM
TGI (HCC-2998 colon): > 100 µM
TGI (COLO 205 colon): > 100 µM
TGI (SNB-75 CNS): > 100 µM
TGI (SK-MEL-2 melanoma): > 100 µM
TGI (HOP-62 NSCLC): > 100 µM
TGI (NCI/ADR-RES ovarian): > 100 µM
TGI (OVCAR-4 ovarian): > 100 µM
TGI (MCF7 breast): > 100 µM
TGI (UACC-62 melanoma): > 100 µM
TGI (A498 renal): > 100 µM
TGI (OVCAR-3 ovarian): > 100 µM
TGI (HCT-15 colon): > 100 µM
TGI (HCT-116 colon): > 100 µM
TGI (UACC-257 melanoma): > 100 µM
TGI (NCI-H460 lung): > 100 µM
TGI (RXF 393 renal): > 100 µM
TGI (SNB-78 CNS): > 100 µM
TGI (NCI-H522 lung): > 100 µM
TGI (KM12 colon): > 100 µM
TGI (SK-MEL-28 melanoma): > 100 µM
TGI (SN12K1 renal): > 100 µM
TGI (MALME-3M melanoma): > 100 µM
TGI (SF-295 CNS): > 100 µM
TGI (UO-31 renal): > 100 µM
TGI (SNB-19 CNS): > 100 µM
TGI (M19-MEL melanoma): > 100 µM
TGI (SF-268 CNS): > 100 µM
TGI (SF-539 CNS): > 100 µM
TGI (U251 CNS): > 100 µM
TGI (NCI-H226 lung): > 100 µM
TGI (NCI-H23 lung): > 100 µM
TGI (DMS 273 small cell lung): > 100 µM
TGI (SN12C renal): > 100 µM
TGI (HOP-18 NSCLC): > 100 µM
TGI (HT29 colon): > 100 µM
TGI (K-562 leukemia): > 100 µM
TGI (MOLT-4 leukemia): > 100 µM
TGI (XF 498 CNS): > 100 µM
TGI (SW-620 colon): > 100 µM
TGI (LOX IMVI melanoma): > 100 µM
TGI (CCRF-CEM leukemia): > 100 µM
TGI (RPMI-8226 leukemia): > 100 µM
TGI (IGROV1 ovarian): > 100 µM
TGI (SK-OV-3 ovarian): > 100 µM
TGI (P388/ADR leukemia): > 100 µM
TGI (KM20L2 colon): > 100 µM
TGI (HL-60(TB) leukemia): > 100 µM
TGI (DLD-1 colon): > 100 µM
TGI (P388 leukemia): > 100 µM
TGI (OVCAR-8 ovarian): > 100 µM
TGI (DMS 114 small cell lung): > 100 µM

Cn1c(=O)c(C2c3ccccc3Oc3c2c(=O)n(C)c2ccccc32)c(O)c2ccccc21 (configuration not stated)
TGI (A549 NSCLC): > 100 µM
TGI (EKVX NSCLC): > 100 µM
TGI (SK-MEL-5 melanoma): > 100 µM
TGI (OVCAR-5 ovarian): > 100 µM
TGI (HCC-2998 colon): > 100 µM
TGI (COLO 205 colon): > 100 µM
TGI (SNB-75 CNS): > 100 µM
TGI (SK-MEL-2 melanoma): > 100 µM
TGI (HOP-62 NSCLC): > 100 µM
TGI (OVCAR-4 ovarian): > 100 µM
TGI (HOP-92 NSCLC): > 100 µM
TGI (RXF-631 renal): > 100 µM
TGI (UACC-62 melanoma): > 100 µM
TGI (OVCAR-3 ovarian): > 100 µM
TGI (HCT-15 colon): > 100 µM
TGI (HCT-116 colon): > 100 µM
TGI (UACC-257 melanoma): 73.7 µM
TGI (NCI-H460 lung): > 100 µM
TGI (RXF 393 renal): > 100 µM
TGI (SNB-78 CNS): > 100 µM
TGI (NCI-H522 lung): 54.6 µM
TGI (KM12 colon): > 100 µM
TGI (SK-MEL-28 melanoma): > 100 µM
TGI (MALME-3M melanoma): > 100 µM
TGI (SF-295 CNS): > 100 µM
TGI (UO-31 renal): > 100 µM
TGI (SNB-19 CNS): > 100 µM
TGI (M19-MEL melanoma): > 100 µM
TGI (SF-268 CNS): > 100 µM
TGI (SF-539 CNS): > 100 µM
TGI (U251 CNS): > 100 µM
TGI (NCI-H226 lung): > 100 µM
TGI (NCI-H23 lung): > 100 µM
TGI (DMS 273 small cell lung): > 100 µM
TGI (LXFL 529 NSCLC): > 100 µM
TGI (SN12C renal): > 100 µM
TGI (HOP-18 NSCLC): > 100 µM
TGI (M14 melanoma): > 100 µM
TGI (HT29 colon): > 100 µM
TGI (K-562 leukemia): > 100 µM
TGI (MOLT-4 leukemia): > 100 µM
TGI (XF 498 CNS): 75.9 µM
TGI (SW-620 colon): > 100 µM
TGI (LOX IMVI melanoma): > 100 µM
TGI (RPMI-8226 leukemia): > 100 µM
TGI (TK-10 renal): 83.8 µM
TGI (IGROV1 ovarian): > 100 µM
TGI (SK-OV-3 ovarian): > 100 µM
TGI (CAKI-1 renal): > 100 µM
TGI (KM20L2 colon): > 100 µM
TGI (ACHN renal): > 100 µM
TGI (786-0 renal): > 100 µM
TGI (HL-60(TB) leukemia): 79.2 µM
TGI (DLD-1 colon): > 100 µM
TGI (SR leukemia): > 100 µM
TGI (OVCAR-8 ovarian): > 100 µM
TGI (DMS 114 small cell lung): > 100 µM
